Reference: PubChem BioAssay AID449764 (Southern Research Specialized Biocontainment Screening …, 2010)
pIC50: −log10 of the molar value.

System: Mycobacterium tuberculosis H37Rv growth inhibition, no glycerol
Assay: Confirmatory growth inhibition assay, Mycobacterium tuberculosis H37Rv, absence of glycerol (AID 449764);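 also: growth read after 7 days of incubation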
Conditions: for IC90: measured here: IC90 growth inhibition

SMILES: COc1ccc(NC(=O)CSc2nnc(-c3ccccn3)n2N)cc1Cl
- pIC50: 4.25
- IC90: > 100 µM

SMILES: Cc1ccn2c(-c3csc(NCc4ccccc4)n3)c(C)nc2c1
- pIC50: 4.34
- IC90: 51.5 µM

SMILES: COc1ccc(/C=N/Nc2cc(N3CCCC3)nc(N3CCCC3)n2)cc1
- pIC50: 4.73
- IC90: 24 µM

SMILES: CCOC(=O)CCCNC(=O)COC(=O)c1cc(Br)c(Br)s1
- pIC50: 4.73
- IC90: > 100 µM

SMILES: CCCCCCCCn1sccc1=O
- pIC50: 5.69
- IC90: 2.83 µM

SMILES: CCCCCCC[N+](CC)(CC)CCCCc1ccc(Cl)cc1
- pIC50: 4.43
- IC90: 49.8 µM

SMILES: CCCCOc1ccc(C(=O)N/N=C/c2ccc(OCCN3CCCCC3)c(OC)c2)cc1
- pIC50: 4.36
- IC90: 47.8 µM

SMILES: C=C1c2c(Cl)ccc(O)c2C(O)=C2C(=O)[C@]3(O)C(O)=C(C(N)=O)C(=O)[C@@H](N(C)C)[C@@H]3[C@@H](O)C12 (some centres not stated)
- pIC50: 5.34
- IC90: 7.01 µM

SMILES: O=[N+]([O-])c1ccc(-n2cnc3ccccc32)c([N+](=O)[O-])c1
- pIC50: 4.02
- IC90: > 100 µM

SMILES: Cc1ccc(CN2C3CCCC2CC(NC(=S)NCc2ccccc2)C3)cc1 (configuration not stated)
- pIC50: 4.39
- IC90: 75.6 µM

SMILES: CC(=O)Nc1ccc(S(=O)(=O)Nc2ccc(N3CCCCC3)cc2)cc1
- pIC50: 4.91
- IC90: 15.9 µM

SMILES: CCCCC(O)(CCCC)C(=O)NN(C(=O)CCl)c1ccccc1
- pIC50: 4.95
- IC90: 22.8 µM

SMILES: N#C/C(=C\c1ccc(-c2ccc(Br)cc2)o1)C(=O)NCCc1c[nH]c2ccccc12
- pIC50: 4.01
- IC90: > 100 µM

SMILES: C=CCn1cccc(/C=C/C(=O)c2ccc(C(C)(C)C)cc2)c1=S
- pIC50: 4.17
- IC90: 86.8 µM

SMILES: Cc1ccc(-c2ccnc(=S)[nH]2)cc1
- pIC50: 4.25
- IC90: > 100 µM

SMILES: CC(=O)c1cccc(NC(=O)C2C3C=CC(C3=C(c3ccccc3)c3ccccc3)C2C(=O)O)c1 (configuration not stated)
- IC90: > 50 µM

SMILES: Fc1ccc(C[n+]2c(-c3ccccc3)cc(-c3ccccc3)cc2-c2ccccc2)cc1
- pIC50: 4.48
- IC90: 43.9 µM

SMILES: NC1=NC[C@H](CC2CCCCC2)N1CCc1cc(C(F)(F)F)cc(C(F)(F)F)c1
- pIC50: 4.95
- IC90: 12.8 µM

SMILES: COCCNC(=S)N/N=C(\C)c1ccc(OC)cc1
- pIC50: 4.36
- IC90: 49 µM

SMILES: CCOC(=O)COc1ccc(C2CC(C)=NN2c2ccccc2)cc1 (configuration not stated)
- pIC50: 5.09
- IC90: 12.9 µM

SMILES: Cc1ccc2c(c1)c1c3n2CCN=C3CCC1
- pIC50: 4.98
- IC90: 16 µM

SMILES: COc1ccccc1NC(=O)c1ccc(NC(=O)CSc2nnnn2C)cc1
- pIC50: 4.93
- IC90: 21.6 µM

SMILES: CCCCCC(=O)NNC(=S)NC(=O)c1ccc([N+](=O)[O-])cc1
- pIC50: 5.49
- IC90: 5.86 µM

SMILES: Cc1c(C(=O)Oc2cccc3ccccc23)cnn1-c1ccccc1
- pIC50: 4.64
- IC90: 26.1 µM

SMILES: CN(C)c1ccc(CNC2C3CC4CC(C3)CC2C4)cc1 (configuration not stated)
- pIC50: 4.91
- IC90: 17 µM

SMILES: CSc1nsc(SCC(=O)N2CCCCC2)n1
- pIC50: 5.06
- IC90: 12.9 µM

SMILES: O=C(/C(=C/c1ccc(Cl)cc1)c1nc2ccccc2[nH]1)c1cccs1
- pIC50: 4.45
- IC90: 96.8 µM

SMILES: O=C(Nc1ccc2nsnc2c1)NC1CCCCC1
- pIC50: 4.35
- IC90: > 100 µM

SMILES: Fc1ccc2[nH]c3c(NCc4ccccc4)ncnc3c2c1
- pIC50: 4.62
- IC90: 27 µM

SMILES: COc1ccc2c(c1)CCc1c(C(=O)Nc3c(C)n(C)n(-c4ccccc4)c3=O)noc1-2
- pIC50: 4.05
- IC90: > 100 µM

SMILES: CCN(CC)c1ccc(N)cc1
- pIC50: 5.05
- IC90: 11.2 µM

SMILES: CN(Cc1ccc(Br)cc1)C(=O)CCN1C(=O)c2cccc([N+](=O)[O-])c2C1=O
- pIC50: 4.01
- IC90: > 100 µM

SMILES: O=C(C1CC1)N1CCCC(c2ccc(Cl)cc2)=N1
- pIC50: 4.37
- IC90: 63.5 µM

SMILES: C=CCN(C(=O)CSc1nc2c(sc3ccccc32)c(=O)n1CCN(CC)CC)c1ccccc1
- pIC50: 4.51
- IC90: 38.8 µM

SMILES: Cc1[nH]c2ccccc2c1C(=O)COC(=O)c1ccc([N+](=O)[O-])s1
- pIC50: 5.88
- IC90: 3.24 µM

SMILES: Cc1cc(=O)n2cccc(O)c2n1
- pIC50: 4.93
- IC90: 21.5 µM

SMILES: CCc1cccc2c(C(=O)CCl)c[nH]c12
- pIC50: 5.39
- IC90: 7.83 µM

SMILES: Cc1ccccc1N1CCN(C(=O)c2ccc(Oc3ccc(C(F)(F)F)cn3)cc2)CC1
- pIC50: 4.52
- IC90: 54.6 µM

SMILES: CCNC(=S)NN=C1c2ccccc2-c2ccccc21
- pIC50: 4.96
- IC90: > 25 µM

SMILES: O=c1cc(N=Nc2ccc(Cl)cc2)[nH]c(=O)[nH]1
- pIC50: 4.10
- IC90: > 100 µM

SMILES: O=C(O)/C=C/C(=O)Nc1ccc(-c2ccccc2)cc1
- pIC50: 4.03
- IC90: > 100 µM

SMILES: Cc1ccc(OC(=O)c2oc3ccc(F)cc3c2C)c(C)c1
- pIC50: 4.92
- IC90: 13.9 µM

SMILES: Cc1ccn2c(NC3CCCCC3)c(-c3cccc(-c4cccc(Cl)c4)c3)nc2c1
- pIC50: 4.58
- IC90: 36.3 µM

SMILES: O=C(Nc1ccc([N+](=O)[O-])cc1)Nc1ccc(OC(F)F)c(Cl)c1
- pIC50: 5.60
- IC90: 3.63 µM

SMILES: CC(C)(C)OC(=O)NNC(=S)NC1CCCCC1
- IC90: > 100 µM

SMILES: COc1ccc(-c2nc(NC(=O)Cn3ccc(C(F)(F)F)n3)sc2C)cc1
- pIC50: 4.35
- IC90: 50.4 µM

SMILES: O=C1c2cccc3c([N+](=O)[O-])ccc(c23)C(=O)N1O
- pIC50: 4.93
- IC90: 13.5 µM

SMILES: CC(=O)c1sc(NC(=O)c2cc(=O)c3ccccc3o2)nc1C
- pIC50: 4.74
- IC90: > 100 µM

SMILES: CCCCNC(=S)N/N=C/c1cccc(OCC)c1O
- pIC50: 4.97
- IC90: 11.9 µM

SMILES: CC1(c2cc([N+](=O)[O-])cc([N+](=O)[O-])c2)CC(C)(C)N(C(=O)c2ccccc2)c2ccccc21 (configuration not stated)
- pIC50: 4.68
- IC90: 28.9 µM

SMILES: N#CC(C#N)=C(N)CSc1cccc[n+]1[O-]
- pIC50: 4.36
- IC90: 49 µM

SMILES: N#Cc1c([N+](=O)[O-])cc([N+](=O)[O-])cc1S(=O)(=O)Cc1ccccc1
- pIC50: 4.65
- IC90: 25.9 µM

SMILES: CN1OC(COC(=O)c2ccc(Cl)cc2Cl)CC1c1ccccc1 (configuration not stated)
- pIC50: 5.12
- IC90: 22.3 µM

SMILES: Cc1ccc(O)c(C(=O)CC(=O)c2ccccc2Cl)c1
- pIC50: 4.75
- IC90: 27.3 µM

SMILES: COc1ccc(NCc2nc3ccccc3n2CCOc2ccccc2)cc1
- pIC50: 4.16
- IC90: 88.6 µM

SMILES: Nc1c(-c2ccccn2)cnn1-c1nc(-c2ccc(F)cc2)cs1
- pIC50: 4.22
- IC90: > 100 µM

SMILES: CNC(=O)COC(=O)c1ccc(-c2nc3ccccc3s2)s1
- pIC50: 5.01
- IC90: 16.3 µM

SMILES: COc1ccc(-c2c(C#Cc3ccsc3)c3ccccc3n2C)cc1
- pIC50: 4.47
- IC90: 49.6 µM

SMILES: CCCCCCCCCCOC(=O)Cn1c(COc2ccc(Cl)cc2)[n+](C)c2ccccc21
- pIC50: 4.80
- IC90: 17.5 µM

SMILES: CCCCCCCCCCC[N+](C)(C)CC/C=C1/c2ccccc2Sc2ccc(Cl)cc21
- pIC50: 5.10
- IC90: 9.28 µM

SMILES: CCc1ccc(/C(C)=N/Nc2cc(Cl)nc(C)n2)cc1
- pIC50: 4.47
- IC90: 59.5 µM

SMILES: NNC(=S)NCc1ccc2c(c1)OCO2
- pIC50: 4.00
- IC90: > 100 µM

SMILES: COc1ccccc1NC(=O)CN1CCN(CC(=O)Nc2ccc3c(c2)OCO3)CC1
- pIC50: 4.41
- IC90: 60 µM

SMILES: Cc1ccc(C(=O)C2CCN(CC(=O)Nc3nc(C)cs3)CC2)cc1
- pIC50: 4.32
- IC90: 53.6 µM

SMILES: Cc1c(Cl)cccc1-c1ccc(CNCc2ccccn2)o1
- pIC50: 5.33
- IC90: 13.6 µM

SMILES: O=C(Nc1ccc(Cl)cc1)N(C1=NCCC1)c1ccc(OC(F)F)cc1
- pIC50: 4.19
- IC90: > 100 µM

SMILES: CCC(C)Nc1ccc(NC(C)CC)cc1 (configuration not stated)
- pIC50: 5.64
- IC90: 2.97 µM

SMILES: CCc1ccc(NC(=O)CSc2nc3n[nH]c(C)c3c(=N)n2-c2cccc(OC)c2)cc1
- pIC50: 4.14
- IC90: > 100 µM

SMILES: Cc1ccn2nc(S(=O)(=O)Nc3c(F)cccc3F)nc2n1
- pIC50: 5.02
- IC90: 11.5 µM

SMILES: c1ccc2c(c1)ncn2CCCCOc1ccc2c(c1)CCC2
- pIC50: 4.62
- IC90: 27.4 µM

SMILES: Cc1cccc(/C=C/C(=O)c2ccc([N+](=O)[O-])o2)c1
- pIC50: > 6.70
- IC90: < 0.2 µM

SMILES: CCN(CC)S(=O)(=O)c1ccc(/C=C/C(=O)OCC#N)cc1
- pIC50: 4.63
- IC90: 47.2 µM

SMILES: COc1ccc(-c2cn(Cc3ccc(C(=O)NCc4ccc(C)cc4)cc3)c(C(C)N)n2)cc1 (configuration not stated)
- pIC50: 4.18
- IC90: 82.4 µM

SMILES: OCC1(Cc2cccc(Cl)c2)CCCN(Cc2ccc3cc(F)ccc3n2)C1 (configuration not stated)
- pIC50: 4.42
- IC90: 54.6 µM

SMILES: O=c1/c(=C\c2ccc(O)cc2)sc2n1C(c1ccccc1)C(c1ccccc1)=NN=2 (configuration not stated)
- pIC50: 4.39
- IC90: 66 µM

SMILES: Nc1cc([N+](=O)[O-])cc2oc(-c3ccccc3)cc12
- IC90: > 100 µM

SMILES: CC(=O)N1CCN(c2ccc(Oc3ccc([N+](=O)[O-])c(C(F)(F)F)c3)cc2)CC1
- pIC50: 4.03
- IC90: > 100 µM

SMILES: CC(C)CNC(=S)NC(=O)c1csc([N+](=O)[O-])c1
- pIC50: 4.65
- IC90: 53.7 µM

SMILES: CC1Cc2cc(-c3csc(NC(=O)Cc4cccs4)n3)ccc2N1S(C)(=O)=O (configuration not stated)
- pIC50: 4.44
- IC90: > 100 µM

SMILES: COCCN(C(=O)C1CC(=O)N(Cc2ccccc2)C1)c1nc(-c2ccc([N+](=O)[O-])cc2)cs1 (configuration not stated)
- pIC50: 4.55
- IC90: > 100 µM

SMILES: O=C(CCCCCNc1nc(=S)[nH]c2ccccc12)N1CCN(c2ccccn2)CC1
- pIC50: 4.04
- IC90: > 100 µM

SMILES: CC[C@@H](C)[C@H](CN[C@H](CNC)C(C)C)NC[C@@H](C)c1ccc(CC(C)C)cc1
- pIC50: 4.88
- IC90: 15.4 µM

SMILES: c1ccc2c(c1)CCN(c1nc3cc4c(cc3s1)OCCO4)C2
- pIC50: 4.46
- IC90: 55 µM

SMILES: CCOC(=O)c1[nH]c(CN2CCN(c3ccc(OC)cc3)CC2)c(C(=O)OCC)c1C
- pIC50: 4.47
- IC90: 48.6 µM

SMILES: CCOC(=O)c1nnc(-c2ccccc2)nc1NCc1ccccc1
- pIC50: 4.72
- IC90: > 100 µM

SMILES: N/C(=N\OC(=O)Nc1ccc(Cl)c(Cl)c1)c1ncc(C(F)(F)F)cc1Cl
- pIC50: 4.54
- IC90: 35.7 µM

SMILES: Cc1csc(NC(=O)CCCC(=O)O)c1-c1nc2ccccc2s1
- pIC50: 4.04
- IC90: > 100 µM

SMILES: COc1ccccc1C(=O)NC(=S)/C=C1/N(C)c2ccccc2C1(C)C
- pIC50: 4.51
- IC90: 46.8 µM

SMILES: O=c1c(-c2cnn(-c3ccccc3)c2)coc2cc(O)ccc12
- pIC50: 4.32
- IC90: > 100 µM

SMILES: O=C(NCCc1ccccc1)[C@@H]1CC=C[C@@H]2CCN(Cc3ccc(Cl)c(Cl)c3)C(=O)[C@@H]21
- pIC50: 4.20
- IC90: 85.5 µM
